Key:
tumor cells [1] = test: PUFAs on tumor cells and normal cells in vitro; format: cell-based; conditions: for tumor cell proliferation: in vitro; for selective killing of tumor cells versus normal cells: tumor cells and normal cells in vitro
Excerpt: (§1) Tumor cells are not only deficient in PUFAs but also have low rate(s) of lipid peroxidation, contain relatively large amounts of antioxidants such as vitamin E and superoxide dismutase (SOD). It is also believed that low rates of lipid peroxidation and consequent low amounts of lipid peroxides in the cells can contribute to an increase in the mitotic process which ultimately leads to an increase in cell proliferation. Thus, a deficiency of PUFAs, high amounts of antioxidants and the presence of low amounts of lipid peroxides in the tumor cells can contribute to the growth of tumor cells.
Essential fatty acids are precursors of eicosanoids and are important structural components of cell membranes. They also provide the substrates for the generation of lipid peroxidation products which have an inhibitory action on cell proliferation. Tumor cells are known to have low delta-6-desaturase activity, an enzyme necessary for the desaturation of dietary linoleic acid (LA, 18:2, n-6) and alpha-linolenic acid (ALA, 18:3, n-3) to their respective products. […] This selective tumoricidal action of fatty acids seems to be mediated by free radicals and lipid peroxides.

tumor cells [2] = test: Mixed culture of normal and tumor cells; format: cell-based; conditions: normal and tumor cells grown together
Excerpt: as §1

skin papilloma = test: Skin papilloma in mice; format: in vivo; conditions: pure fatty acid or fatty acid rich oils
hepatoma = test: Hepatoma in rats; format: in vivo; conditions: pure fatty acid or fatty acid rich oils
ascitic tumor cells = test: Ascitic tumor cells in the peritoneum of experimental animals; format: in vivo; conditions: pure fatty acid or fatty acid rich oils
tumor cells [3] = test: Potentiation of anti-cancer drugs by PUFAs in tumor cells; format: cell-based; conditions: combination with the fatty acid
[4] = tested on: TNF resistant L-929 tumor cells; test: TNF resistant L-929 tumor cells in vitro; format: cell-based; conditions: for killing of TNF resistant L-929 tumor cells: in vitro; for sensitisation of TNF-resistant L-929 cells to TNF: prior treatment with the fatty acid
KB-chR 8-5 cells = test: Vincristine resistant KB-8-5 tumor cells; format: cell-based
bone marrow cells = test: Side effects of gamma-radiation and cis-platinum to bone marrow cells of mice; format: in vivo
E-selectin = conditions: proliferating endothelial cells; cited from earlier work
[5] = target: T1, alpha/beta sub-units of ATP synthase (Homo sapiens, UniProt P06576+P25705); conditions: human umbilical vein endothelial cells; cited from earlier work
T1 construct: Using human umbilical endothelial vein endothelial cells; endogenous in cells; host or cells: human umbilical vein endothelial cells
T1 sequence (P25705 44-553): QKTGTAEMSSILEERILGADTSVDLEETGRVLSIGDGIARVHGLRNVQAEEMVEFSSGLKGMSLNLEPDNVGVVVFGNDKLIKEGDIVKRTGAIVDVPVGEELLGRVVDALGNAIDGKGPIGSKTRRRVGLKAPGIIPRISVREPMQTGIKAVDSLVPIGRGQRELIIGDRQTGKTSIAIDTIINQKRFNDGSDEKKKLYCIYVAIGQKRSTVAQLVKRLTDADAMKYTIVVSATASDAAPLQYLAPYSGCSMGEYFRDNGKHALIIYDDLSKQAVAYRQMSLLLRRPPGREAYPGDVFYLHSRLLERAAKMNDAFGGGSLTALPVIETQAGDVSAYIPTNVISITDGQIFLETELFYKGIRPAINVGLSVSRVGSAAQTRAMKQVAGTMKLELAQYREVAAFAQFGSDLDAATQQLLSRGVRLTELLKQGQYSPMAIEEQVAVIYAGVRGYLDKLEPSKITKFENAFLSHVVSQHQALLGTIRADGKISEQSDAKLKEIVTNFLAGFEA
T1 sequence (P06576 48-529): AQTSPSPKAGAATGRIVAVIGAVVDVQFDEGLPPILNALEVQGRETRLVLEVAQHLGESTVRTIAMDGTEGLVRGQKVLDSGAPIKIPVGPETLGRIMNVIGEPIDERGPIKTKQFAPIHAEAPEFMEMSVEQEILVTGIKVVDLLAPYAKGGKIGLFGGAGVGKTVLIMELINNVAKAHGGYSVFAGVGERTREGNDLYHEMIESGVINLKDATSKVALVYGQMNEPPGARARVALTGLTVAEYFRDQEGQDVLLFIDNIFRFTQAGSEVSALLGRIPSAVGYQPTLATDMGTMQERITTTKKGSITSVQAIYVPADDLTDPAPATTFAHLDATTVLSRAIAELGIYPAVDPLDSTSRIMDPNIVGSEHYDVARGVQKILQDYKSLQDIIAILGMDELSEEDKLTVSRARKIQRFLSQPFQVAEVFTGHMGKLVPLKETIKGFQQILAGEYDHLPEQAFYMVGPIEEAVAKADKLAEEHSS
T1 sequence (P36542 26-298 partner): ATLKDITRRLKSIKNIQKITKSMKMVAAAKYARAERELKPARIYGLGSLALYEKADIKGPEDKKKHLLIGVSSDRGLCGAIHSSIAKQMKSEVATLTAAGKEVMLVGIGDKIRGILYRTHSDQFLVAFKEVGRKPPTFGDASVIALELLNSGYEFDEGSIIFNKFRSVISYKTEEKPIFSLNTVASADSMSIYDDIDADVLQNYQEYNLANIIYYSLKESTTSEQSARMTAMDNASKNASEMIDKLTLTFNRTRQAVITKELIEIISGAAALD
T1 sequence (P30049 23-168 partner): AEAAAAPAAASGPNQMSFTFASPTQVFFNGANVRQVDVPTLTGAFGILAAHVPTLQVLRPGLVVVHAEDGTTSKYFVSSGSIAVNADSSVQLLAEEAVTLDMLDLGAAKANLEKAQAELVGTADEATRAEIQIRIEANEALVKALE
T1 sequence (P56381 2-51 partner limits assumed): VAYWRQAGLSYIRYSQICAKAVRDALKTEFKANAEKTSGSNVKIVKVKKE

[6] = tested on: subcutaneous hemangioendothelioma; conditions: mice with subcutaneous hemangioendothelioma and disseminated intravascular coagulopathy; cited from earlier work
[7] = tested on: corneal plasminogen synthesis; conditions: cornea; cited from earlier work
tumor cells [8] = conditions: cited from earlier work

## CCCCC/C=C\C/C=C\C/C=C\C/C=C\CCCC(=O)O [AA, arachidonic acid]
Tumor cells [1]
  tumor cell proliferation: decrease tumor cell proliferation
  selective killing of tumor cells versus normal cells: only tumor cells are killed
Tumor cells [2]
  selective tumoricidal action in mixed culture: effective to some extent
Skin papilloma
  growth of skin papilloma: inhibit the growth
hepatoma
  formation and growth of hepatoma: inhibit the growth
Ascitic tumor cells
  growth of ascitic tumor cells in the peritoneum: inhibit the growth
Tumor cells [3]
  cellular uptake of anti-cancer drugs by the tumor cells: enhance the cellular uptake
  cytotoxic action of doxorubicin, vincristine and cis-platinum: augmented
[4]
  killing of TNF resistant L-929 tumor cells: able to kill
  sensitisation of TNF-resistant L-929 cells to TNF: rendered TNF sensitive
KB-chR 8-5 cells
  sensitisation of vincristine resistant KB-8-5 cells to vincristine: made sensitive

## CC/C=C\C/C=C\C/C=C\CCCCCCCC(=O)O [ALA, alpha-linolenic acid]
Tumor cells [1]
  selective killing of tumor cells versus normal cells: only tumor cells are killed

## CCCCC/C=C\C/C=C\C/C=C\CCCCCCC(=O)O [DGLA, dihomo-GLA]
Tumor cells [1]
  tumor cell proliferation: decrease tumor cell proliferation
  selective killing of tumor cells versus normal cells: only tumor cells are killed
Skin papilloma
  growth of skin papilloma: inhibit the growth
hepatoma
  formation and growth of hepatoma: inhibit the growth
Ascitic tumor cells
  growth of ascitic tumor cells in the peritoneum: inhibit the growth
Tumor cells [3]
  cellular uptake of anti-cancer drugs by the tumor cells: enhance the cellular uptake
  cytotoxic action of doxorubicin, vincristine and cis-platinum: augmented
[4]
  killing of TNF resistant L-929 tumor cells: able to kill
  sensitisation of TNF-resistant L-929 cells to TNF: rendered TNF sensitive
KB-chR 8-5 cells
  sensitisation of vincristine resistant KB-8-5 cells to vincristine: made sensitive
Bone marrow cells
  side effects of gamma-radiation and cis-platinum to bone marrow cells: prevent or ameliorate the side effects

## CC/C=C\C/C=C\C/C=C\C/C=C\C/C=C\C/C=C\CCC(=O)O [DHA, docosahexaenoic acid]
Tumor cells [3]
  cytotoxic action of doxorubicin, vincristine and cis-platinum: augmented

## CC/C=C\C/C=C\C/C=C\C/C=C\C/C=C\CCCC(=O)O [EPA, eicosapentaenoic acid]
Tumor cells [3]
  cytotoxic action of doxorubicin, vincristine and cis-platinum: augmented
Bone marrow cells
  side effects of gamma-radiation and cis-platinum to bone marrow cells: prevent or ameliorate the side effects

## CCCCC/C=C\C/C=C\C/C=C\CCCCC(=O)O [GLA, gamma-linolenic acid]
Tumor cells [1]
  tumor cell proliferation: decrease tumor cell proliferation
hepatoma
  formation and growth of hepatoma: inhibit the growth
Ascitic tumor cells
  growth of ascitic tumor cells in the peritoneum: inhibit the growth
Tumor cells [3]
  cellular uptake of anti-cancer drugs by the tumor cells: enhance the cellular uptake
  cytotoxic action of doxorubicin, vincristine and cis-platinum: augmented
[4]
  killing of TNF resistant L-929 tumor cells: able to kill
Bone marrow cells
  side effects of gamma-radiation and cis-platinum to bone marrow cells: prevent or ameliorate the side effects

## CCCCC/C=C\C/C=C\CCCCCCCC(=O)O [LA, linoleic acid]
Tumor cells [1]
  selective killing of tumor cells versus normal cells: only tumor cells are killed

## CC\C=C/C=C/C=C/C=C\CCCCCCCC(=O)O [cis-parinaric acid]
Tumor cells [1]
  selective killing of tumor cells versus normal cells: only tumor cells are killed

## angiostatin®
E-selectin
  effect on expression of E-selectin: 4 to 5 fold
[5]
  binding to alpha/beta sub-units of ATP synthase: bound in a concentration-dependent, saturable manner
[6]
  size of the tumor: significant reduction
  survival: increased survival

## interleukin-6: cytokine
[7]
  decrease of corneal plasminogen synthesis: 40%

## vitamin E
Tumor cells [8]
  free radical generation and lipid peroxidation generated by PUFAs like GLA, EPA and DHA: completely inhibit

From patent US6617354B1, “Method of stabilizing and potentiating the action of anti-angiogenic substances” (priority 2000, dated 2003)
